From ChEMBL document CHEMBL2417397, “Synthesis and biological properties of new N-Mannich bases derived from 3-methyl-3-phenyl- and 3,3-dimethyl-succinimides. Part V” (Eur J Med Chem, 2013) come the findings set out here.

Structures are written as SMILES. Activity calls are given as the source filed them. No cut-off for these calls is given here. A value given as a limit tells only on which side of the number the result lay.

One data set is filed under the species Rattus norvegicus. Kind of data set: Protective index, ratio of TD50 for Sprague-Dawley albino rat by rotarod test to ED50 for Sprague-Dawley albino rat. The class given is functional.
Settings: not given
(In general: In the rotarod test animals must keep their balance on a rotating rod.)
As for `O=C1NC(=O)C(c2ccccc2)(c2ccccc2)N1` [PHENYTOIN], the “Ratio TD50/ED50” value is listed as above 3.6.

`O=C1CC2(CCc3ccccc3C2)C(=O)N1CN1CCN(c2cccc(Cl)c2)CC1` (stereo not given): the “Ratio TD50/ED50” value was above 25.69.

As to `O=C1CC(c2ccccc2)(c2ccccc2)C(=O)N1CN1CCN(c2cccc(C(F)(F)F)c2)CC1`, the “Ratio TD50/ED50” value was below 13.2.

Test system in another data set: not listed separately
Kind of data set: Neurotoxicity in po dosed Sprague-Dawley albino rat at 30 mg/kg, po after 0.25 to 4 hrs by rotarod test. The class given is toxicity, organism-based. More on the design: dose 30 mg/kg, route oral. To be noted: in vivo.
On to `O=C1NC(=O)C(c2ccccc2)(c2ccccc2)N1` [PHENYTOIN], for which the TD50 – broadly, the dose at which the toxic effect under study appears in half of the subjects – was above 100 mg/kg.

`O=C1CC2(CCc3ccccc3C2)C(=O)N1CN1CCN(c2cccc(Cl)c2)CC1` (stereo not given) yielded a TD50 above 400 mg/kg.

The compound `O=C1CC(c2ccccc2)(c2ccccc2)C(=O)N1CN1CCN(c2cccc(C(F)(F)F)c2)CC1` yielded a TD50 below 400 mg/kg.

For the compound `O=C1CC(c2ccccc2Br)C(=O)N1CN1CCN(c2ccc(F)cc2)CC1` (stereo not given), the TD50 was 62.4 mg/kg.

The test system of another data set is Rattus norvegicus. As to the kind of experiment: Anticonvulsant activity in po dosed Sprague-Dawley albino rat assessed as protection against maximal electroshock-induced seizures after 0.25 to 4 hrs. The class given is functional.
Settings: not given
A general note: The maximal electroshock test induces tonic seizures with an electrical stimulus.
Consider `O=C1CC2(CCc3ccccc3C2)C(=O)N1CN1CCN(c2cccc(Cl)c2)CC1` (stereo not given), for which the median effective dose (ED50) (usually the dose that gives a 50% effect, or the effect in half of the subjects) came to 15.6 mg/kg.

In the case of `O=C1CC(c2ccccc2)(c2ccccc2)C(=O)N1CN1CCN(c2cccc(C(F)(F)F)c2)CC1`, the ED50 was determined as 30 mg/kg.

For `O=C1CC(c2ccccc2Br)C(=O)N1CN1CCN(c2ccc(F)cc2)CC1` (stereo not given), the ED50 came to 7.4 mg/kg.

In a further data set the test system is Rattus norvegicus. As to the kind of experiment: Anticonvulsant activity in Sprague-Dawley albino rat assessed as time of peak effect for protection against maximal electroshock-induced seizures at 30 mg/kg, po.
Settings: not given
The class given is functional.
As for `O=C1NC(=O)C(c2ccccc2)(c2ccccc2)N1` [PHENYTOIN], the Time was 2 h.

In the next data set the test system is Mus musculus. Kind of data set: Anticonvulsant activity in CF-1 albino mouse assessed as time of peak effect for protection against maximal electroshock-induced seizures at 30 to 300 mg/kg, ip. Format: functional. Particulars: dose mg/kg 30-300; route intraperitoneal.
In the case of `O=C1NC(=O)C(c2ccccc2)(c2ccccc2)N1` [PHENYTOIN], the Time is 1 h.

A further data set concerns Rattus norvegicus. Kind of data set: Neurotoxicity in Sprague-Dawley albino rat assessed as motor impairment at 30 mg/kg, po. The class given is toxicity, organism-based. Set-up: dose 30 mg/kg, route oral. Particulars: in vivo.
On to `COc1cccc(N2CCN(CN3C(=O)CC(C)(C)C3=O)CC2)c1`, for which the Activity entry is recorded as “Non-toxic”.

The next data set has as its system Rattus norvegicus. Kind of data set: Anticonvulsant activity in Sprague-Dawley albino rat assessed as protection against maximal electroshock-induced seizures at 30 mg/kg, po after 4 hrs. Format: functional.
Settings: not given
`O=C1NC(=O)C(c2ccccc2)(c2ccccc2)N1` [PHENYTOIN]: the Activity is recorded as 75%.

On to `COc1cccc(N2CCN(CN3C(=O)CC(C)(C)C3=O)CC2)c1`, for which the outcome was inactive.

The next data set has as its system Rattus norvegicus. Kind of data set: Anticonvulsant activity in Sprague-Dawley albino rat assessed as protection against maximal electroshock-induced seizures at 30 mg/kg, po after 2 hrs.
Settings: not given
Format: functional.
On to `O=C1NC(=O)C(c2ccccc2)(c2ccccc2)N1` [PHENYTOIN], for which the Activity is 75%.

Regarding `COc1cccc(N2CCN(CN3C(=O)CC(C)(C)C3=O)CC2)c1`, the result was inactive.

For a further data set, the system named is Rattus norvegicus. As to the kind of experiment: Anticonvulsant activity in Sprague-Dawley albino rat assessed as protection against maximal electroshock-induced seizures at 30 mg/kg, po after 1 hr.
Settings: not given
Format: functional.
In the case of `O=C1NC(=O)C(c2ccccc2)(c2ccccc2)N1` [PHENYTOIN], the Activity is reported as 75%.

In the case of `COc1cccc(N2CCN(CN3C(=O)CC(C)(C)C3=O)CC2)c1`, the outcome was inactive.

For the next data set, the system named is Rattus norvegicus. As to the kind of experiment: Anticonvulsant activity in Sprague-Dawley albino rat assessed as protection against maximal electroshock-induced seizures at 30 mg/kg, po after 0.5 hrs. The class given is functional.
Settings: not given
As to `O=C1NC(=O)C(c2ccccc2)(c2ccccc2)N1` [PHENYTOIN], the result was Active.

For the compound `COc1cccc(N2CCN(CN3C(=O)CC(C)(C)C3=O)CC2)c1`, the Activity amounted to 25%.

The subject of another data set is Rattus norvegicus. Kind of data set: Anticonvulsant activity in Sprague-Dawley albino rat assessed as protection against maximal electroshock-induced seizures at 30 mg/kg, po after 0.25 hrs. Format: functional.
Settings: not given
For the compound `O=C1NC(=O)C(c2ccccc2)(c2ccccc2)N1` [PHENYTOIN], the Activity was determined as 25%.

As for `COc1cccc(N2CCN(CN3C(=O)CC(C)(C)C3=O)CC2)c1`, the outcome was inactive.

A further data set deals with Mus musculus. Kind of data set: Neurotoxicity in CF-1 albino mouse at 300 mg/kg, ip after 4 hrs by rotarod test. The class given is toxicity, organism-based. Set-up: dose 300 mg/kg, route intraperitoneal. To be noted: in vivo.
On to `COc1ccccc1N1CCN(CN2C(=O)CC(C)(C)C2=O)CC1`, for which the Activity result is listed as “Non-toxic”.

For the compound `CC1(C)CC(=O)N(CN2CCN(c3ccc(Cl)c(Cl)c3)CC2)C1=O`, the Activity result is reported as “Non-toxic”.

`CC1(C)CC(=O)N(CN2CCN(c3ccc(F)cc3)CC2)C1=O`: the Activity result is “Non-toxic”.

With `Cc1cccc(N2CCN(CN3C(=O)CC(C)(C)C3=O)CC2)c1`, the Activity entry is reported as “Non-toxic”.

For the compound `CC1(C)CC(=O)N(CN2CCN(c3ccccc3Cl)CC2)C1=O`, the Activity result is recorded as “Non-toxic”.

Take `COc1cccc(N2CCN(CN3C(=O)CC(C)(C)C3=O)CC2)c1`: the Activity entry was “Non-toxic”.

As to `CC1(C)CC(=O)N(CN2CCN(c3ccccc3F)CC2)C1=O`, the Activity entry was “Non-toxic”.

`CC1(C)CC(=O)N(CN2CCN(c3ccc(Cl)cc3)CC2)C1=O`: the Activity entry is given as “Non-toxic”.

Test system in another data set: not listed separately
Kind of data set: Neurotoxicity in ip dosed CF-1 albino mouse after 0.5 hrs by rotarod test. Format: toxicity, organism-based. To be noted: CF-1, mouse, in vivo.
The compound `COc1ccccc1N1CCN(CN2C(=O)CC(C)(C)C2=O)CC1` yielded a TD50 at 0.5 h of 300 mg/kg.

The compound `CC1(C)CC(=O)N(CN2CCN(c3ccc(F)cc3)CC2)C1=O` yielded a TD50 at 0.5 h of 300 mg/kg.

On to `Cc1cccc(N2CCN(CN3C(=O)CC(C)(C)C3=O)CC2)c1`, for which the TD50 at 0.5 h is 300 mg/kg.

`CC1(C)CC(=O)N(CN2CCN(c3ccccc3Cl)CC2)C1=O` came in with a TD50 at 0.5 h of 100 mg/kg.

As for `COc1cccc(N2CCN(CN3C(=O)CC(C)(C)C3=O)CC2)c1`, the TD50 at 0.5 h stood at 300 mg/kg.

Take `CC1(C)CC(=O)N(CN2CCN(c3ccccc3F)CC2)C1=O`: the TD50 at 0.5 h turned out to be 300 mg/kg.

`CC1(C)CC(=O)N(CN2CCN(c3ccc(Cl)cc3)CC2)C1=O` gave a TD50 at 0.5 h of 300 mg/kg.

The next data set concerns Mus musculus. Kind of data set: Neurotoxicity in CF-1 albino mouse at 300 mg/kg, ip after 0.5 hrs by rotarod test. Format: toxicity, organism-based. Set-up: dose 300 mg/kg, route intraperitoneal. Particulars: in vivo.
`CC1(C)CC(=O)N(CN2CCN(c3ccc(Cl)c(Cl)c3)CC2)C1=O`: the Activity result is listed as “Non-toxic”.

A further data set concerns Mus musculus. Kind of data set: Anticonvulsant activity in CF-1 albino mouse assessed as protection against maximal electroshock-induced seizures at 300 mg/kg, ip after 4 hrs. The class given is functional, organism-based. More on the design: dose 300 mg/kg.
Settings: not given
Turning to `COc1ccccc1N1CCN(CN2C(=O)CC(C)(C)C2=O)CC1`, the outcome was inactive.

For `CC1(C)CC(=O)N(CN2CCN(c3ccc(Cl)c(Cl)c3)CC2)C1=O`, the result was inactive.

`CC1(C)CC(=O)N(CN2CCN(c3ccc(F)cc3)CC2)C1=O`: the result was inactive.

As to `Cc1cccc(N2CCN(CN3C(=O)CC(C)(C)C3=O)CC2)c1`, the outcome was inactive.

As to `CC1(C)CC(=O)N(CN2CCN(c3ccccc3Cl)CC2)C1=O`, the result was inactive.

As to `CC1(C)CC(=O)N(CN2CCN(c3ccc(Cl)cc3)CC2)C1=O`, the outcome was inactive.

Another data set has as its system Mus musculus. Kind of data set: Anticonvulsant activity in ip dosed CF-1 albino mouse assessed as protection against maximal electroshock-induced seizures after 4 hrs. The class given is functional.
Settings: not given
With `COc1cccc(N2CCN(CN3C(=O)CC(C)(C)C3=O)CC2)c1`, the MED50 worked out at 100 mg/kg.

For the compound `CC1(C)CC(=O)N(CN2CCN(c3ccccc3F)CC2)C1=O`, the MED50 amounted to 100 mg/kg.

The subject of another data set is Mus musculus. As to the kind of experiment: Anticonvulsant activity in CF-1 albino mouse assessed as protection against maximal electroshock-induced seizures at 300 mg/kg, ip after 0.5 hrs. The class given is functional, organism-based. Set-up: dose 300 mg/kg.
Settings: not given
Turning to `COc1ccccc1N1CCN(CN2C(=O)CC(C)(C)C2=O)CC1`, the outcome was inactive.

As for `CC1(C)CC(=O)N(CN2CCN(c3ccc(Cl)c(Cl)c3)CC2)C1=O`, the result was inactive.

As for `CC1(C)CC(=O)N(CN2CCN(c3ccc(F)cc3)CC2)C1=O`, the outcome was inactive.

In the case of `Cc1cccc(N2CCN(CN3C(=O)CC(C)(C)C3=O)CC2)c1`, the result was inactive.

Take `CC1(C)CC(=O)N(CN2CCN(c3ccccc3Cl)CC2)C1=O`: the outcome was inactive.

Regarding `COc1cccc(N2CCN(CN3C(=O)CC(C)(C)C3=O)CC2)c1`, the result was inactive.

In the case of `CC1(C)CC(=O)N(CN2CCN(c3ccccc3F)CC2)C1=O`, the outcome was inactive.

Turning to `CC1(C)CC(=O)N(CN2CCN(c3ccc(Cl)cc3)CC2)C1=O`, the outcome was inactive.
